The values below are quoted from earlier work in paper PMC2831206 (Journal of medicinal chemistry, 2010).

In one series the test system is learning and memory. The conditions noted are these: rodents.
The next series deals with PDE9A. Conditions: read-out: IC50 with PDE9A.

Consider `C[C@H](Cc1nc2c(cnn2-c2ccccc2Cl)c(=O)[nH]1)C(F)(F)F` [compound 1, 1-(2-chlorophenyl)-6-(3,3,3-trifluoro-2-methylpropyl)-1H-pyrazolo[3,4-d]pyrimidine-4(5H)-one], for which, in the series on learning and memory, the “effect on learning and memory” value is “ability to improve learning and memory in rodents”.
As to `CC(C)Cn1c(=O)n(C)c(=O)c2nc[nH]c21` [IBMX, 3-isobutyl-1-methylxanthine], the IC50 in the series with PDE9A is greater than 200 µM.

Broadly, the IC50 is the midpoint of a concentration-inhibition curve.
